Measurements: paper PMC10780175, “In Silico and In Vivo Pharmacokinetic Evaluation of 84-B10, a Novel Drug Candidate against Acute Kidney Injury and Chronic Kidney Disease” (Molecules, 2023)
Like-named read-outs stand apart in the source and are kept apart here.

Experiments:
[1] = system: cisplatin-induced acute kidney injury; parameters: method as in PMID 36403736, PMID 36629048; conditions: mice, 5 mg/kg; cited from earlier work
[2] = Stability of 84-B10 in rat plasma under different storage conditions; type: in vitro ADME; conditions: n = 6
Protocol: The method was validated according to the Bioanalytical Method Validation Guidance for Industry issued by Food and Drug Administration of USA in 2018. In short, blank plasma from six different rats was collected and spiked with or without LLOQ working solutions to evaluate the sensitivity. The linear least square method was used to fit the standard curve, and the weighting coefficient was 1/x^2. The precision and accuracy were evaluated by analyzing three different concentrations of quality control samples in three consecutive days. Blank plasma was first precipitated with methanol and then spiked with QC working solutions into supernatant. The peak area was compared with QC samples to estimate the extraction recovery. Alternatively, blank plasma was replaced with ultrapure water and mixed with QC working solutions. The matrix effect was then evaluated. For stability evaluation, different concentrations of QC samples were stored at room temperature for 2 h, frozen–thawed for three cycles, or stored in an auto-sampler (extracted samples, 4 °C) for 24 h and then analyzed.

[3] = parameters: method as in PMID 36629048; conditions: mice, intraperitoneal 5 mg/kg, plasma, non-compartmental WinNonlin 7.0 on concentrations from previous publication; cited from earlier work
Lon protease 1 (LONP1) = target: Lon protease 1 (LONP1); parameters: method as in PMID 36629048; conditions: cited from earlier work
LonP1 = system: LonP1; parameters: method as in PMID 36629048; conditions: cited from earlier work
[4] = system: renal fibrosis induced by unilateral ureteral obstruction (UUO) or unilateral ischemia reperfusion injury (UIRI); parameters: method as in PMID 36403736, PMID 36629048; conditions: mice, dose of 0.5–7.5 mg/kg; cited from earlier work
[5] = Tissue distribution in rats after intraperitoneal injection; type: in vivo, Sprague Dawley rats; conditions: intraperitoneal 0.36 mg/kg
Protocol: (§1) The validated UPLC-MS/MS method was successfully applied to the pharmacokinetic study and tissue distribution in rats after an intraperitoneal injection of 84-B10 (0.36 mg/kg). […] Two hours later, the plasma concentration tended to flatten out, with a concentration of approximately 10 ng/mL. AUC0–t and AUC0–∞ were 269 and 278 h*ng/mL, respectively. After an intraperitoneal administration, 84-B10 could be detected in different tissues, indicating a wide distribution (Figure 4). The compound rapidly distributed and reached maximum concentration at 0.033 h for most tissues. […] In most tissues, 84-B10 was eliminated at 8 h.
(§2) After one week of adaptive feeding, pharmacokinetic experiments were conducted. 84-B10 (0.36 mg/kg) solution was injected and blood was collected into tubes containing heparin sodium at 0.033, 0.083, 0.25, 0.5, 1, 2, 4, 6 and 8 h after administration. Blood was centrifuged at 8000 rpm for 5 min to obtain the plasma. The tissue was accurately weighed and ground with pure water (w:v, 1:5) to obtain homogenate. An amount of 50 µL of biological matrix was precipitated with 200 μL of methanol containing IS (Ginkgolide J, 2 μg/mL). After vortexing for 5 min, the samples were centrifuged at 12,000 rpm for 5 min and the supernatant was taken for injection.

[6] = Pharmacokinetic study in rats after intraperitoneal injection (UHPLC-MS/MS); type: in vivo, Sprague Dawley rats; conditions: for Cmax / AUC(0-inf) / AUC(0-t) / Tmax / half-life: ip
Protocol: as §1
84-B10 was determined and quantified by ExionLC system coupled with SCIEX 4500 triple quadrupole mass spectrometers (SCIEX, Framingham, MA, USA). A phenyl HPLC column (50 × 2.1 mm, 3 μm) (YMC, Kyoto, Japan) was used for separation. Methanol was selected as the organic phase as it could better reflect the π-π selectivity between benzene and the chromatographic column. An amount of 5 mM ammonium formate was added into water to adjust the dissociation of 84-B10 and to improve the chromatographic peak. The flow rate was 0.3 mL/min with gradient elution (Table 8).
as §2

[7] = extracted rat plasma samples, autosampler 4 °C for 24 h, spiked 3 ng/mL
[8] = extracted rat plasma samples, autosampler 4 °C for 24 h, spiked 300 ng/mL
[9] = extracted rat plasma samples, autosampler 4 °C for 24 h, spiked 750 ng/mL
[10] = rat plasma, room temperature for 2 h, spiked 3 ng/mL
[11] = rat plasma, room temperature for 2 h, spiked 300 ng/mL
[12] = rat plasma, room temperature for 2 h, spiked 750 ng/mL
[13] = rat plasma, three freeze–thaw cycles, spiked 3 ng/mL
[14] = rat plasma, three freeze–thaw cycles, spiked 300 ng/mL
[15] = rat plasma, three freeze–thaw cycles, spiked 750 ng/mL
[16] = Sprague Dawley, rat, plasma, single intraperitoneal injection 0.36 mg/kg, female, mean ± SD
[17] = Sprague Dawley, rat, plasma, single intraperitoneal injection 0.36 mg/kg, male, mean ± SD
[18] = both sexes, Sprague Dawley, rat, plasma, single intraperitoneal injection 0.36 mg/kg, total (male and female), mean ± SD

COc1ccc(Oc2ccc(C(F)(F)F)cc2NC(=O)CC(CC(=O)O)c2ccccc2)cc1 (stereo not shown) [84-B10, 5-[[2-(4-methoxyphenoxy)-5-(trifluoromethyl)phenyl]amino]-5-oxo-3-phenylpentanoic acid]
therapeutic effect on cisplatin-induced acute kidney injury [1]: significant therapeutic effect | Measured Concentrations [2, 7]: 3.15 ± 0.11 ng/mL | RE [2, 7]: 5.00% | Measured Concentrations [2, 8]: 299 ± 10 ng/mL | RE [2, 8]: −0.33% | Measured Concentrations [2, 9]: 710 ± 27 ng/mL | RE [2, 9]: −5.38% | Measured Concentrations [2, 10]: 2.96 ± 0.10 ng/mL | RE [2, 10]: −1.50% | Measured Concentrations [2, 11]: 278 ± 3 ng/mL | RE [2, 11]: −7.44% | Measured Concentrations [2, 12]: 670 ± 15 ng/mL | RE [2, 12]: −10.7% | Measured Concentrations [2, 13]: 2.87 ± 0.29 ng/mL | RE [2, 13]: −4.22% | Measured Concentrations [2, 14]: 287 ± 20 ng/mL | RE [2, 14]: −4.28% | Measured Concentrations [2, 15]: 684 ± 18 ng/mL | RE [2, 15]: −8.87% | AUC0→t, observed [3]: 1327 ng·h/mL | Cl, observed [3]: 56.8 mL/min/kg | Cmax, observed [3]: 2038 ng/mL | Vd, observed [3]: 11.20 L/kg | Kd (Lon protease 1 (LONP1); previous research, read-out: binding affinity): 312 nM | binding affinity (Lon protease 1 (LONP1); same value expressed in ng/mL): 147 ng/mL | LonP1 activation (LonP1): new LonP1 activator | effect on renal fibrosis induced by UUO or UIRI [4]: dose-dependently alleviated renal fibrosis | Tmax ([5]; Sprague Dawley, rat, most tissues (tissue homogenate), ip, most tissues, read-out: time of maximum concentration in most tissues): 1.98 min | tissues with highest concentration [5]: most concentrated in the intestine, stomach, liver, kidney and lung | time at which eliminated in most tissues ([5]; most tissues): 8 h | Cmax ([6]; Sprague Dawley, rat, intraperitoneal 0.36 mg/kg, plasma, non-compartmental WinNonlin 7.0, read-out: Cmax, observed): 257 ng/mL | concentration at 2 h ([6]; Sprague Dawley, rat, plasma, intraperitoneal 0.36 mg/kg, 2 h after injection, curve flattens out, read-out: plasma concentration two hours later): ~10 ng/mL | AUC(0-inf) [6, 16]: 241 ± 29 ng·h/mL | AUC(0-t) [6, 16]: 233 ± 27 ng·h/mL | Tmax [6, 16]: 8.4 ± 6 min | half-life [6, 16]: 25.8 ± 2.4 min | Cmax ([6]; Sprague Dawley, rat, plasma, single intraperitoneal injection 0.36 mg/kg, female, mean ± SD, read-out: Cmax): 231 ± 2.08 ng/mL | AUC(0-inf) [6, 17]: 315 ± 31 ng·h/mL | AUC(0-t) [6, 17]: 305 ± 30.2 ng·h/mL | Tmax [6, 17]: 11.4 ± 6 min | half-life [6, 17]: 27 ± 1.2 min | Cmax ([6]; Sprague Dawley, rat, plasma, single intraperitoneal injection 0.36 mg/kg, male, mean ± SD, read-out: Cmax): 284 ± 48.2 ng/mL | AUC(0-inf) [6, 18]: 278 ± 48.9 ng·h/mL | AUC(0-t) [6, 18]: 269 ± 47.3 ng·h/mL | Tmax [6, 18]: 10.2 ± 5.4 min | half-life [6, 18]: 26.4 ± 1.8 min | Cmax ([6]; both sexes, Sprague Dawley, rat, plasma, single intraperitoneal injection 0.36 mg/kg, total (male and female), mean ± SD, read-out: Cmax): 257 ± 42.4 ng/mL | gender difference in the absorption ([6]; intraperitoneal 0.36 mg/kg, male vs female): no significant gender difference | Cl, observed ([6]; intraperitoneal 0.36 mg/kg, plasma, non-compartmental WinNonlin 7.0): 22.2 mL/min/kg | CL ([6]; single intraperitoneal injection 0.36 mg/kg, female, mean ± SD): 1509 ± 177 mL/h/kg | CL ([6]; single intraperitoneal injection 0.36 mg/kg, male, mean ± SD): 1149 ± 119 mL/h/kg | CL ([6]; single intraperitoneal injection 0.36 mg/kg, total (male and female), mean ± SD): 1329 ± 239 mL/h/kg
